{
  "source": "patent US20230220047A1",
  "about": "“PEPTIDES FOR TREATMENT OF SEPSIS AND CANCER” (NORWEGIAN UNIVERSITY OF SCIENCE AND TECHNOLOGY (NTNU), priority 2020, published 2023)",
  "key": {"THP-1 cells [1]": {"test_system": "THP-1 cells", "experiment": "Viability of acute myeloid leukaemia cell line THP-1", "assay_type": "cell-based, human", "details": "5-30 μM, 48 h", "experimental": "THP-1 cells were seeded in medium at 10,000 cells/well, as indicated by the dotted line. Cells were incubated for 48 hours in medium supplemented with water, C3A-Pen, P7-Pen, P7-A4-Pen or P7-N4-Pen. The peptides were included at concentrations ranging from 5-30 μM. At 48 hours cells were counted. […] The results with other peptides were less clear-cut. Results are based on 3 biological replicates, error bars show standard deviation of mean.\nThe peptides were tested against the SW480 cell line in the presence and absence of LPS."}, "TLR9": {"test_system": "TLR9", "assay_type": "cell-based, human", "details": "15 μM, 1 h pre-treatment, CpG 2006", "experimental": "CpG 2006 (10 μM) was used as specific TLR9 ligand. (A) Results of LDH assay on SNs from stimulated cells. (B-E) Results of qPCR analysis of cytokine expression with TaqMan probes. (F) Results of ELISA for secreted IL-113 levels. Cells were pre-treated with 15 μM peptides for 1 h, followed by addition of CpG 2006 to the cell culture media.\nWe then tested whether P7-Pen could alter signaling via another endosomal PRR: TLR9, which recognises specific unmethylated CpG motifs prevalent in microbial DNA. In humans, TLR9 is almost exclusively expressed in B cells and plasmacytoid dendritic cells (pDC), while in mice TLR9 is expressed more widely, including in myeloid immune cells. To test the effect of P7-Pen on signaling via human TLR9 we used a model system of THP-1 cells expressing an inducible TLR9^CHERRY construct. 48 hr after induction of TLR9 expression by doxycycline, undifferentiated THP-1 TLR9^CHERRY cells were pre-treated with control or P7-Pen peptide for 1 hr, then stimulated with the Class B CpG oligonucleotide CpG 2006 ODN (a human-specific TLR9 agonist). […] Thus, P7 peptide could also be used to inhibit the expression of selected cytokines mediated by TLR9 in human disease."}, "TLR4": {"test_system": "TLR4", "experiment": "Cytokine expression in primary human monocytes stimulated by LPS or E. coli particles", "assay_type": "cell-based", "experimental": "Use of human monocytes from blood donors was approved by the Regional Committees for Medical and Health Research Ethics at the Norwegian University of Science and Technology (NTNU). Human monocytes were isolated from buffy coats by adherence as previously described (Husebye et al., Immunity 33: 583-596, 2010). Briefly, freshly prepared buffy coat (The Blood Bank, St. Olav's Hospital, Trondheim, Norway) was diluted in 100 ml PBS, and PBMCs isolated by density gradient centrifugation using Lymphoprep (Axis-Shield) according to the manufacturer's instructions. […] Cells were counted using a Z2 Coulter Particle Count and Size Analyzer (Beckman Coulter) on program B, re-suspended in RPM11640 (Sigma) supplemented with 5% pooled human serum at a concentration of 8×10^6 per ml and seeded into 6-well (1 ml per well) or 24-well (0.5 ml per well) cell culture dishes. […] Total RNA was isolated from the cells using Qiazol reagent #79306 from QIAGEN, and chloroform extraction followed by purification on RNeasy Mini columns with DNAse digestion (Qiagen). cDNA was prepared using the Maxima First Strand cDNA Synthesis Kit for quantitative real-time polymerase chain reaction (RT-qPCR) (Thermo Fisher Scientific) according to the manufacturer's protocol. qPCR was performed using the PerfeCTa qPCR FastMix (Quanta Biosciences) in replicates and cycled in a StepOnePlusTM Real-Time PCR cycler. […]"}, "TLR7": {"test_system": "TLR7", "experiment": "qPCR of R837-induced TLR7-mediated cytokine expression in human monocytes", "assay_type": "cell-based", "details": "15 μM, R837 1 μg/ml", "experimental": "Cells were pre-treated with 15 μM peptides for 30 min, followed by the addition of LPS (100 ng/ml) (A), R837 (1 μg/ml) (B) or CL075 (1 μg/ml) for increasing lengths of time.\nAs previously shown, P7-Pen inhibits TLR8-mediated IFNβ expression in human monocytes, without significant effect on the expression of pro-inflammatory cytokines. Human cells express one more endosomal RNA sensor in addition to TLR8: TLR7, which uses similar signaling pathways to induce cytokine expression as the TLR8 receptor. To investigate the effect of P7-Pen on TLR7-mediated signaling, human monocytes were stimulated with imiquimod (R837), an imidazoquinoline amine analog to guanosine, which activates only TLR7, not TLR8 (Lee et al., PNAS 100(11): 6646-6651 (2003)). […] TNF and IL-1β expression were not induced in monocytes by the R837 TLR7 agonist even in control treated cells (FIG. 18C)."}, "THP-1 cells [2]": {"test_system": "THP-1 cells", "experiment": "LDH cytotoxicity assay in THP-1 cells", "details": "1 h pre-treatment", "protocol": "For every assay, separate wells were seeded for the required controls (Spontaneous LDH Release Controls and Maximum LDH Release Control) with the same amount of cells as used for peptide treatments. All supernatants were analysed in triplicate with the average value of technical replicates taken into calculations.\nTHP-1 cells were pre-treated with increasing concentrations of P7-Arg11 and control peptide Arg11 for 1 h (FIG. 3)."}},
  "data": [
    {"substance": "Ac-ITVAASVTLTGRQIKIWFQNRRMKWKK-NH2 [Peptide P7-A4-Pen]", "values": [
      {"measurement": "effect on THP-1 cell number", "setting": "THP-1 cells [1]", "result": "anti-proliferative effect"}
    ]},
    {"substance": "Ac-ITVYASVTLTGRQIKIWFQNRRMKWKK-NH2 [Peptide P7-Pen]", "values": [
      {"measurement": "TLR9-mediated IFNβ and CXCL10 expression", "setting": "TLR9", "result": "strongly inhibited"},
      {"measurement": "TLR9-mediated expression of TNF and IL-1β", "setting": "TLR9", "result": "to some extent inhibited"},
      {"measurement": "IFNβ, TNF, IL-1β and IL-6 expression in response to TLR4 stimulation", "setting": "TLR4; 15 μM, 30 min pre-treatment, LPS 100 ng/ml, all tested donors", "result": "significantly decreased"},
      {"measurement": "reducing cytokine secretion by monocytes stimulated by E. coli particles", "setting": "TLR4; P7-Pen 15 μM vs P7-Arg11 10 μM", "result": "more effective than P7-Arg11"},
      {"measurement": "TLR7-mediated IFNβ mRNA expression", "setting": "TLR7", "result": "inhibits"},
      {"measurement": "TLR7-mediated IL-6 expression", "setting": "TLR7", "result": "delayed activation"}
    ]},
    {"substance": "Ac-ITVYASVTLTGRRRRRRRRRRR-NH2 [Peptide P7-Arg11]", "values": [
      {"measurement": "toxicity (LDH assay)", "setting": "THP-1 cells [2]; 5 μM and 10 μM", "result": "essentially non-toxic"},
      {"measurement": "toxicity (LDH assay)", "setting": "THP-1 cells [2]; 20 μM", "result": "increased toxicity"}
    ]}
  ]
}
